The assay has as its system S. mutans UA159. Briefly: pH of culture medium of S. mutans biofilms after 1 minute incubation with test treatments. The conditions noted are these: for pH of the medium, Average: average of samples; for pH of the medium: individual samples 1-4; for drop in pH of the medium (initial pH minus pH at 6 or 8 hours): 6 and 8 hours after treatment, FIGS. 2 and 3; for statistical significance of pH results compared to the water control: p<0.05. Format: cell-based, Streptococcus mutans. The source says:
Amongst acidogenic bacteria, S. mutans is the principal etiological agent of caries in humans. Since there is a strong correlation between the proportion of S. mutans in dental plaque or in saliva relative to other bacterial species and the presence or risk of future outbreaks of dental caries, S. mutans in plaque or saliva may serve as an index for both dental caries activity state and dental caries risk or susceptibility. S. mutans UA159 strain was used in this Example.
On the first day, biofilm growth was initiated by inoculating 10 mL of 100% Todd-Hewitt broth (THYE) with 0.3% yeast extract at a pH of 7.0 with UA159 to prepare overnight cultures. The samples were incubated in closed screw-cap tubes without agitation at 37° C. in an anaerobic chamber (5% CO2).
On the second day, 1:100 dilutions were prepared by mixing 20 pl of the overnight UA159 cultures with ¼ THYE with 0.075% yeast extract supplemented with 0.1% sucrose to reach a final volume of 2 mL. The dilutions were then placed into the wells of 12-well plates.
On the third day, the 2 mL of medium was removed from each well. 1.0 mL of test treatment solution, as described below, was added to each well, after which the wells were incubated for 1 minute on the bench at room temperature. Next, the test treatment solutions were removed, and 3.0 mL of undiluted THYE with 0.3% yeast extract and no sucrose was added to each well.
If an internal pH control was required, fresh THYE was also added to two un-inoculated wells. During these steps, care was taken to avoid disrupting the biofilm.
Immediately after 100% THYE with 0.3% yeast extract was added to the wells following incubation with the test treatments, the initial pH of the medium in each well was measured. Samples were incubated at 37° C. in an open air, bench-top incubator, and the pH of the medium was measured once an hour for the next 7-8 hours. Finally, the pH of the medium in each well was measured again the next morning.

Several values for one entry are separate records, joined by “and”; a condition that tells them apart may be missing. Equal entries are not always repeated.

Take `O.O.O=C([O-])CC(O)(CC(=O)[O-])C(=O)[O-].[Na+].[Na+].[Na+]` [Sodium Citrate, Sodium citrate dihydrate]: the “drop in pH of the medium (initial pH minus pH at 6 or 8 hours)” value is recorded as “little to no effect on the drop in pH” and the “statistical significance of pH results compared to the water control” value is “no statistically significant difference at any time”. The “pH of the medium, Average” value (0 hours after treatment) is 7.50. Moreover, where the note is “0 hours after treatment, citrate dihydrate”, the “pH of the medium” value was 7.5 and 7.35 and 7.57 and 7.58. For the same compound, the “pH of the medium, Average” value (1 hour after treatment) came out at 7.05. Further, the “pH of the medium” value (1 hour after treatment, citrate dihydrate) was 7.05 and 6.93 and 7.09 and 7.12. For the same compound, the “pH of the medium, Average” value (2 hours after treatment) was found to be 6.83. Further, the “pH of the medium” value (2 hours after treatment, citrate dihydrate) was 6.69 and 6.75 and 6.91 and 6.95. In addition, the “pH of the medium, Average” value (3 hours after treatment) is reported as 6.50. Also, for the setting “3 hours after treatment, citrate dihydrate”, the “pH of the medium” value is 6.01 and 6.47 and 6.76 and 6.77. The “pH of the medium, Average” value (4 hours after treatment) turned out to be 6.00. Moreover, the “pH of the medium” value (4 hours after treatment, citrate dihydrate) is 5.14 and 5.94 and 6.44 and 6.48. In addition, the “pH of the medium, Average” value (5 hours after treatment) came to 5.64. In addition, the “pH of the medium” value (5 hours after treatment, citrate dihydrate) is 5.02 and 5.49 and 5.96 and 6.07. Also, the “pH of the medium, Average” value (6 hours after treatment) amounted to 5.22. For the same compound, under “6 hours after treatment, citrate dihydrate”, the “pH of the medium” value was 4.98 and 5.06 and 5.36 and 5.46. For the setting “7 hours after treatment”, the “pH of the medium, Average” value is on record as 5.00. For the same compound, under “7 hours after treatment, citrate dihydrate”, the “pH of the medium” value is 4.97 and 4.92 and 5.04 and 5.07. Besides, where the note is “8 hours after treatment”, the “pH of the medium, Average” value is 4.97. The “pH of the medium” value (8 hours after treatment, citrate dihydrate) is 4.99 and 4.95 and 4.96.

As for `OC[C@@H](O)[C@H](O)[C@@H](O)CO` [Xylitol], the “drop in pH of the medium (initial pH minus pH at 6 or 8 hours)” value was “able to slow the pH drop”; the “statistical significance of pH results compared to the water control” value is “statistically significant difference at 1, 6, 7, and 8 hours”. For the setting “0 hours after treatment”, the “pH of the medium, Average” value came to 7.50; the “pH of the medium” value is 7.49 and 7.36 and 7.58 and 7.57. For the same compound, for the setting “1 hour after treatment”, the “pH of the medium, Average” value came to 7.08; the “pH of the medium” value is 7.08 and 7 and 7.12 (2×). Also, under “2 hours after treatment”, the “pH of the medium, Average” value is on record as 6.87; the “pH of the medium” value is 6.72 and 6.82 and 6.97 (2×). For the setting “3 hours after treatment”, the “pH of the medium, Average” value is reported as 6.58; the “pH of the medium” value is 6.19 and 6.57 and 6.77 and 6.8. For the same compound, for the setting “4 hours after treatment”, the “pH of the medium, Average” value is listed as 6.27; the “pH of the medium” value is 5.77 and 6.17 and 6.55 and 6.57. Also, for the setting “5 hours after treatment”, the “pH of the medium, Average” value worked out at 6.00; the “pH of the medium” value was 5.51 and 5.93 and 6.25 and 6.29. Moreover, under “6 hours after treatment”, the “pH of the medium, Average” value came out at 5.72; the “pH of the medium” value is 5.23 and 5.55 and 6.05 and 6.06. Where the note is “7 hours after treatment”, the “pH of the medium, Average” value was found to be 5.52; the “pH of the medium” value was 5.1 and 5.37 and 5.78 and 5.82. Under “8 hours after treatment”, the “pH of the medium, Average” value came out at 5.45; the “pH of the medium” value was 5.09 and 5.58 and 5.68.

As to `O=C([O-])O.[Na+]` [Sodium Bicarbonate, Sodium bicarbonate], the “drop in pH of the medium (initial pH minus pH at 6 or 8 hours)” value is “little to no effect on the drop in pH” and the “statistical significance of pH results compared to the water control” value was “statistically significant difference at 1 hour”. Under “0 hours after treatment”, the “pH of the medium, Average” value stood at 7.51; the “pH of the medium” value was 7.48 and 7.39 and 7.58 and 7.59. For the setting “1 hour after treatment”, the “pH of the medium, Average” value is reported as 7.07; the “pH of the medium” value was 7.09 and 6.97 and 7.1 and 7.12. Also, under “2 hours after treatment”, the “pH of the medium, Average” value stood at 6.84; the “pH of the medium” value is 6.67 and 6.81 and 6.93 and 6.96. In addition, where the note is “3 hours after treatment”, the “pH of the medium, Average” value was 6.52; the “pH of the medium” value was 5.85 and 6.6 and 6.82 and 6.81. Under “4 hours after treatment”, the “pH of the medium, Average” value was 6.08; the “pH of the medium” value was 5.08 and 6.21 and 6.49 and 6.53. For the setting “5 hours after treatment”, the “pH of the medium, Average” value amounted to 5.69; the “pH of the medium” value is 5.03 and 5.7 and 5.97 and 6.06. For the setting “6 hours after treatment”, the “pH of the medium, Average” value stood at 5.22; the “pH of the medium” value was 5 and 5.11 and 5.33 and 5.42. Further, for the setting “7 hours after treatment”, the “pH of the medium, Average” value was determined as 5.01; the “pH of the medium” value is 5 and 4.96 and 5.01 and 5.06. For the setting “8 hours after treatment”, the “pH of the medium, Average” value is 5.00; the “pH of the medium” value is 5.06 and 4.96 and 4.97.

The record behind these values is US20150297490A1, “COMPOSITIONS, USES AND METHODS FOR TREATING OR PREVENTING DENTAL CARIES” (APOLLONIA HEALTH INC., priority 2012, published 2015).
